Molecular target: T1, MMP-13 (Homo sapiens, UniProt P45452)
T1 construct: purchased GenzymeTechne
Assay: MMP-13 inhibitory activity (fluorogenic substrate Cy3-PLGLK(Cy5Q)AR-NH2 enzyme assay)
Type: biochemical
Conditions: compound 1 μM; 37° C., 40 min; APMA-activated MMP-13 precursor; read-out: MMP-13 inhibitory rate (%) at 1 μM
Protocol: To 10 μg of MMP-13 precursor (GenzymeTechne) was added 1 ml of assay buffer (50 mM Tris-HCl (pH 7.5), 10 mM CaCl2, 150 mM NaCl, 0.05% Brij-35), and 4-aminophenylmercuric acid (Sigma) was added to the final concentration of 1 mM. The MMP-13 precursor was activated by incubating at 37° C. for 2 hr.
In a 96 well black plate (Corning), to 6.3 ng/ml of MMP-13 solution (49 μl) diluted with assay buffer was added the test compound (1 μl) diluted with dimethyl sulfoxide (DMSO) and 620 nM Cy3-PLGLK(Cy5Q)AR-NH2 (50 μl, synthesized by Amersham Biosciences) in assay buffer was added to start the enzyme reaction. After incubation at 37° C. for 40 min, 500 mM EDTA solution (6 μl) was added to stop the reaction. For measurement, Farcyte (Amersham Biosciences) was used to measure at excitation wavelength 535 nm and measurement wavelength 595 nm.
T: value of well with addition of DMSO instead of test compound
C: value of well with addition of DMSO instead of test compound and addition of EDTA solution before addition of substrate solution
X: value of well with addition of test compound

Compound	inhibition at 1 µM
O=C(NCc1cccc(COCc2nc[nH]n2)c1)c1nc2ccccc2c(=O)[nH]1 [Example 30, 4-oxo-N-[(3-{[(1H-1,2,4-triazol-3-ylmethyl)oxy]methyl}phenyl)methyl]-3,4-dihydroquinazoline-2-carboxamide]	96%
N#Cc1ccc2nc(C(=O)NCc3cccc(COCc4nc[nH]n4)c3)[nH]c(=O)c2c1 [Example 31, 6-cyano-4-oxo-N-[(3-{[(1H-1,2,4-triazol-3-ylmethyl)oxy]methyl}phenyl)methyl]-3,4-dihydroquinazoline-2-carboxamide]	97%
N#Cc1ccc2nc(C(=O)NCc3cccc(NC(=O)CCc4nc[nH]n4)c3)[nH]c(=O)c2c1 [Example 32, 6-cyano-4-oxo-N-[(3-{[3-(1H-1,2,4-triazol-3-yl)propanoyl]amino}phenyl)methyl]-3,4-dihydroquinazoline-2-carboxamide]	98%
N#Cc1ccc2nc(C(=O)NCc3cccc(CNC(=O)Cc4nc[nH]n4)c3)[nH]c(=O)c2c1 [Example 34, 6-cyano-4-oxo-N-[(3-{[(1H-1,2,4-triazol-3-ylacetyl)amino]methyl}phenyl)methyl]-3,4-dihydroquinazoline-2-carboxamide]	90%
N#Cc1ccc2nc(C(=O)NCc3cccc(CNC(=O)c4nc[nH]n4)c3)[nH]c(=O)c2c1 [Example 36, 6-cyano-4-oxo-N-[(3-{[(1H-1,2,4-triazol-3-ylcarbonyl)amino]methyl}phenyl)methyl]-3,4-dihydroquinazoline-2-carboxamide]	97%
N#Cc1ccc2nc(C(=O)NCc3cccc(NC(=O)c4nc[nH]n4)c3)[nH]c(=O)c2c1 [Example 38, 6-cyano-4-oxo-N-({3-[(1H-1,2,4-triazol-3-ylcarbonyl)amino]phenyl}methyl)-3,4-dihydroquinazoline-2-carboxamide]	85%
Cc1csc2nc(C(=O)NCc3cccc(NC(=O)c4nc[nH]n4)c3)[nH]c(=O)c12 [Example 39, 5-methyl-4-oxo-N-({3-[(1H-1,2,4-triazol-3-ylcarbonyl)amino]phenyl}methyl)-3,4-dihydrothieno[2,3-d]pyrimidine-2-carboxamide]	81%
O=C(CCCOc1cccc(CNC(=O)c2nc3ccccc3c(=O)[nH]2)c1)Nc1nc[nH]n1 [Example 40, 4-oxo-N-[(3-{[4-oxo-4-(1H-1,2,4-triazol-3-ylamino)butyl]oxy}phenyl)methyl]-3,4-dihydroquinazoline-2-carboxamide]	94%
CCOC(=O)c1ccc(COCc2csc3nc(C(=O)NCc4ccnc(OCCCc5nc[nH]n5)c4)[nH]c(=O)c23)cc1 [Example 41, ethyl 4-[({[4-oxo-2-({[(2-{[3-(1H-1,2,4-triazol-3-yl)propyl]oxy}pyridin-4-yl)methyl]amino}carbonyl)-3,4-dihydrothieno[2,3-d]pyrimidin-5-yl]methyl}oxy)methyl]benzoate]	96%
O=C(O)c1ccc(COCc2csc3nc(C(=O)NCc4ccnc(OCCCc5nc[nH]n5)c4)[nH]c(=O)c23)cc1 [Example 42, 4-[({[4-oxo-2-({[(2-{[3-(1H-1,2,4-triazol-3-yl)propyl]oxy}pyridin-4-yl)methyl]amino}carbonyl)-3,4-dihydrothieno[2,3-d]pyrimidin-5-yl]-methyl}oxy)methyl]benzoic acid]	98%
O=C(NCc1cccc(OCCOc2nc[nH]n2)c1)c1nc2ccc(F)c(F)c2c(=O)[nH]1 [Example 44, 5,6-difluoro-4-oxo-N-[(3-{[2-(1H-1,2,4-triazol-3-yloxy)ethyl]oxy}phenyl)methyl]-3,4-dihydroquinazoline-2-carboxamide]	98%
O=C(NCc1cccc(OCCOc2nc[nH]n2)c1)c1nc2ccc(F)c(NCc3cccc(OCCOc4nc[nH]n4)c3)c2c(=O)[nH]1 [Example 45, 6-fluoro-4-oxo-N-[(3-{[2-(1H-1,2,4-triazol-3-yloxy)ethyl]oxy}phenyl)methyl]-5-{[(3-{[2-(1H-1,2,4-triazol-3-yloxy)ethyl]oxy}phenyl)methyl]amino}-3,4-dihydroquinazoline-2-carboxamide]	97%
O=C(O)c1ccc(CCOc2c(F)ccc3nc(C(=O)NCc4cccc(OCCOc5nc[nH]n5)c4)[nH]c(=O)c23)cc1 [Example 46, 4-(2-{[6-fluoro-4-oxo-2-({[(3-{[2-(1H-1,2,4-triazol-3-yloxy)ethyl]oxy}phenyl)methyl]amino}carbonyl)-3,4-dihydroquinazolin-5-yl]oxy}ethyl)benzoic acid]	100%
COC(=O)c1ccc(OCCn2ncc3nc(C(=O)NCc4cccc(OCCOc5nc[nH]n5)c4)[nH]c(=O)c32)cc1 [Example 47, methyl 4-({2-[7-oxo-5-({[(3-{[2-(1H-1,2,4-triazol-3-yloxy)ethyl]oxy}phenyl)methyl]amino)carbonyl}-6,7-dihydro-1H-pyrazolo[4,3-d]pyrimidin-1-yl]ethyl}oxy)benzoate]	98%
O=C(O)c1ccc(OCCn2ncc3nc(C(=O)NCc4cccc(OCCOc5nc[nH]n5)c4)[nH]c(=O)c32)cc1 [Example 48, 4-({2-[7-oxo-5-({[(3-{[2-(1H-1,2,4-triazol-3-yloxy)ethyl]oxy}phenyl)methyl]amino}carbonyl)-6,7-dihydro-1H-pyrazolo[4,3-d]pyrimidin-1-yl]ethyl}oxy)benzoic acid]	99%

Source: US7915267B2, “Heterocyclic amide compound and use thereof” (Takeda Pharmaceutical Company Limited, priority 2005, dated 2011)
